According to patent US8003800B2, “Thiophene derivatives as S1P1/EDG1 receptor agonists” (Actelion Pharmaceuticals Ltd., priority 2006, dated 2011):

These compounds were tested against recombinant human S1P1 receptor (Homo sapiens, UniProt P21453) (assay: GTPγS assay to determine EC50 values). Conditions: 35S-GTPγS binding, membrane preparations of CHO cells expressing recombinant human S1P1 receptor, pH 7.4.
Format: biochemical
Experimental: GTPγS binding assays are performed in 96 well microtiter plates (Nunc, 442587) in a final volume of 200 μl, using membrane preparations of CHO cells expressing recombinant human S1P1 receptor. Assay conditions are 20 mM Hepes (Fluka, 54461), 100 mM NaCl (Fluka, 71378), 5 mM MgCl2 (Fluka, 63064), 0.1% BSA (Calbiochem, 126609), 1 μM GDP (Sigma, G-7127), 2.5% DMSO (Fluka, 41644), […] ^35S-GTPγS (Amersham Biosciences, SJ1320). The pH is 7.4. Test compounds are dissolved and diluted in 100% DMSO and pre-incubated at room temperature for 30 min in 150 μl of the above assay buffer, in the absence of ^35S-GTPγS. After addition of 50 μl of ^35S-GTPγS, the assay is incubated for 1 h at rt. The assay is terminated by transfer of the reaction mixture to a Multiscreen plate (Millipore, MAHFC1H60) using a cell harvester from Packard Biosciences, and the plates are washed with ice-cold 10 mM Na2HPO4/NaH2PO4 (70%/30%), dried, sealed at the bottom and, after addition of 25 μl MicroScint20 (Packard Biosciences, order #6013621), sealed on the top. Membrane-bound ^35S-GTPγS is measured with a TopCount from Packard Biosciences.
EC50 is the concentration of agonist inducing 50% of the maximal specific ^35S-GTPγS binding. Specific binding is determined by subtracting non-specific binding from maximal binding. Maximal binding is the amount of cpm bound to the Multiscreen plate in the presence of 10 μM of S1P. Non-specific binding is the amount of binding in the absence of an agonist in the assay.
The EC50 values were determined according to the method described above: […]

Chain of recombinant human S1P1 receptor (P21453 whole entry): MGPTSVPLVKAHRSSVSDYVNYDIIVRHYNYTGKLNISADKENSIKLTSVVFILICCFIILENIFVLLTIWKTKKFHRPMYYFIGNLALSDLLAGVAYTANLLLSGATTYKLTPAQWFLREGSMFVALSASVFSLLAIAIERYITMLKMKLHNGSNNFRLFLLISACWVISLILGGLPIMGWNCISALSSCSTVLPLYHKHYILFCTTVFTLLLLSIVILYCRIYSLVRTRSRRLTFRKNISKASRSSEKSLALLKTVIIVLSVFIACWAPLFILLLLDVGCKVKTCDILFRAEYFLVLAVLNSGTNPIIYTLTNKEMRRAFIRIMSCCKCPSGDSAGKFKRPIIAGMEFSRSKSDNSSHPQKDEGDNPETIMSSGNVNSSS

Row | SMILES | EC50
1 | CCc1cc(-c2noc(-c3cc(CC(C)C)c(C)s3)n2)cc(C)c1OCC(O)CNC(=O)CO (racemic) [Example 16, rac-N-(3-{2-Ethyl-4-[5-(4-isobutyl-5-methyl-thiophen-2-yl)-[1,2,4]oxadiazol-3-yl]-6-methyl-phenoxy}-2-hydroxy-propyl)-2-hydroxy-acetamide] | 5.5 nM
2 | Cc1cc(-c2noc(-c3sc(C)c(CC(C)C)c3C)n2)cc(C)c1OCC(O)CNC(=O)CO (racemic) [Example 50, rac-2-Hydroxy-N-(2-hydroxy-3-{4-[5-(4-isobutyl-3,5-dimethyl-thiophen-2-yl)-[1,2,4]oxadiazol-3-yl]-2,6-dimethyl-phenoxy}-propyl)acetamide] | 2.1 nM
3 | CCCc1c(CC(C)C)csc1C(=O)/C=C/c1cc(C)c(O)c(C)c1 [Example 3, 3-(4-Hydroxy-3,5-dimethyl-phenyl)-1-(4-isobutyl-3-propyl-thiophen-2-yl)-propenone] | 5.8 nM
4 | Cc1cc(CCC(=O)c2scc(CC(C)C)c2CC(C)C)cc(C)c1O [Example 7, 1-(3,4-diisobutyl-thiophen-2-yl)-3-(4-hydroxy-3,5-dimethyl-phenyl)-propan-1-one] | 8.4 nM
5 | CCCc1c(CC(C)C)csc1C(=O)CCc1cc(C)c(OC[C@@H](O)CO)c(C)c1 [Example 8, 3-[4-((S)-2,3-dihydroxy-propoxy)-3,5-dimethyl-phenyl]-1-(4-isobutyl-3-propyl-thiophen-2-yl)-propan-1-one] | 7.5 nM
6 | CCc1cc(-c2noc(-c3cc(CC(C)C)c(C)s3)n2)cc(C)c1CCC(=O)NCCO [Example 58, 3-{2-ethyl-4-[5-(4-isobutyl-5-methyl-thiophen-2-yl)-[1,2,4]oxadiazol-3-yl]-6-methyl-phenyl}-N-(2-hydroxy-ethyl)-propionamide] | 7.5 nM
7 | Cc1cc(-c2noc(-c3scc(CC(C)C)c3C)n2)cc(C)c1OC[C@@H](O)CNC(=O)CO [Example 70, (S)-2-Hydroxy-N-(2-hydroxy-3-{4-[5-(4-isobutyl-3-methyl-thiophen-2-yl)-[1,2,4]oxa-diazol-3-yl]-2,6-dimethyl-phenoxy}-propyl)-acetamide] | 1.1 nM
8 | CCc1cc(-c2nnc(-c3sc(C)c(CC(C)C)c3C)o2)cc(C)c1OC[C@@H](O)CNC(=O)CO [Example 109, (S)—N-(3-{2-Ethyl-4-[5-(4-isobutyl-3,5-dimethyl-thiophen-2-yl)-[1,3,4]oxadiazol-2-yl]-6-methyl-phenoxy}-2-hydroxy-propyl)-2-hydroxy-acetamide] | 0.4 nM

These compounds were tested on circulating lymphocytes (assay: Assessment of in vivo efficacy: circulating lymphocytes after oral administration). Conditions: 6 h after oral administration of 10 mg/kg to normotensive male Wistar rats, as compared to vehicle-treated group; mean±SEM.
Set-up: unit not given here
Experimental: The efficacy of the compounds of Formula (I) is assessed by measuring the circulating lymphocytes after oral administration of 3 to 30 mg/kg of a compound of Formula (I) to normotensive male Wistar rats. The animals are housed in climate-controlled conditions with a 12 h-light/dark cycle, and have free access to normal rat chow and drinking water. Blood is collected before and 3, 6 and 24 h after drug administration. Full blood is subjected to hematology using Advia Hematology system (Bayer Diagnostics, Züurich, Switzerland).
All data are presented as mean±SEM. Statistical analyses are performed by analysis of variance (ANOVA) using Statistica (StatSoft) and the Student-Newman-Keuls procedure for multiple comparisons. The null hypothesis is rejected when p<0.05.

Row | SMILES | Lymphocyte counts
9 | Cc1cc(-c2noc(-c3scc(CC(C)C)c3C)n2)cc(C)c1OCC(O)CNC(=O)CO (racemic) [Example 23, rac-2-Hydroxy-N-(2-hydroxy-3-{4-[5-(4-isobutyl-3-methyl-thiophen-2-yl)-[1,2,4]oxadiazol-3-yl]-2,6-dimethyl-phenoxy}-propyl)acetamide] | −73 ± 2
10 | Cc1cc(-c2noc(-c3sc(C)c(CC(C)C)c3C)n2)cc(C)c1OCC(O)CNC(=O)CO (racemic) [Example 50, rac-2-Hydroxy-N-(2-hydroxy-3-{4-[5-(4-isobutyl-3,5-dimethyl-thiophen-2-yl)-[1,2,4]oxadiazol-3-yl]-2,6-dimethyl-phenoxy}-propyl)acetamide] | −93 ± 1
11 | COc1cc(OCC(O)CNC(=O)CO)ccc1-c1noc(-c2cc(CC(C)C)c(C)s2)n1 (stereo not drawn) [Example 46, 2-hydroxy-N-(2-hydroxy-3-{4-[5-(4-isobutyl-5-methyl-thiophen-2-yl)-[1,2,4]oxadiazol-3-yl]-3-methoxy-phenoxy}-propyl)-acetamide] | −77 ± 3
12 | CCc1cc(-c2nnc(-c3cc(CC(C)C)c(C)s3)o2)cc(C)c1OC[C@@H](O)CNC(=O)CO [Example 64, N—((S)-3-{2-ethyl-4-[5-(4-isobutyl-5-methyl-thiophen-2-yl)-[1,3,4]oxadiazol-2-yl]-6-methyl-phenoxy}-2-hydroxy-propyl)-2-hydroxy-acetamide] | −66 ± 1
